From US11970497B2, “Tricyclic AKR1C3 dependent KARS inhibitors” (Novartis AG, priority 2019, dated 2024)

Experiments:
[1] = system: NCI-H460; assay: Expanded lung cancer cell line proliferation assay; assay type: cell-based; details: Homo sapiens; NCI-H460, 72 h, average of PrestoBlue and Cell Titer Glo; AKR1C3 865.3 TPM; read-out: Absolute Qualified AC50
How it was run: (§1)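 72 h growth assay, RPMI-1640/10% FBS, 37 °C/5% CO2; 8-pt dose, 1 μM top; PrestoBlue + CTG multiplex; AC50 = mean of both read-outs.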

[2] = system: A427; assay: Expanded lung cancer cell line proliferation assay; assay type: cell-based; details: Homo sapiens, A-427; A427, 72 h, average of PrestoBlue and Cell Titer Glo; AKR1C3 0.2 TPM; read-out: Absolute Qualified AC50
How it was run: as §1

[3] = system: LXF-289; assay: Expanded lung cancer cell line proliferation assay; assay type: cell-based; details: Homo sapiens; LXF-289, 72 h, average of PrestoBlue and Cell Titer Glo; AKR1C3 358.4 TPM; read-out: Absolute Qualified AC50
How it was run: as §1

[4] = system: SW1271; assay: Expanded lung cancer cell line proliferation assay; assay type: cell-based; details: SW1271, 72 h, average of PrestoBlue and Cell Titer Glo; AKR1C3 2.4 TPM; read-out: Absolute Qualified AC50
How it was run: as §1

[5] = system: HLC-1; assay: Expanded lung cancer cell line proliferation assay; assay type: cell-based; details: HLC-1, 72 h, average of PrestoBlue and Cell Titer Glo; AKR1C3 expression: no data available; read-out: Absolute Qualified AC50
How it was run: as §1

[6] = system: NCI-H1437; assay: Expanded lung cancer cell line proliferation assay; assay type: cell-based; details: Homo sapiens; NCI-H1437, 72 h, average of PrestoBlue and Cell Titer Glo; AKR1C3 2720.8 TPM; read-out: Absolute Qualified AC50
How it was run: as §1

[7] = system: NCI-H1299; assay: Expanded lung cancer cell line proliferation assay; assay type: cell-based; details: Homo sapiens; NCI-H1299, 72 h, average of PrestoBlue and Cell Titer Glo; AKR1C3 1.3 TPM; read-out: Absolute Qualified AC50
How it was run: as §1

[8] = system: NCI-H1435; assay: Expanded lung cancer cell line proliferation assay; assay type: cell-based; details: NCI-H1435, 72 h, average of PrestoBlue and Cell Titer Glo; AKR1C3 171.1 TPM; read-out: Absolute Qualified AC50
How it was run: as §1

[9] = system: VMRC-LCD; assay: Expanded lung cancer cell line proliferation assay; assay type: cell-based; details: 72 h, average of PrestoBlue and Cell Titer Glo, AKR1C3 expression: no data available, read-out: Absolute Qualified AC50
How it was run: as §1

[10] = system: NCI-H1944 (KEAP1 mutant, AKR1C3 expressing) cell line derived lung cancer xenografts; assay: PK/PD in NCI-H1944 xenograft (tumor DDIT3 and EGR1 mRNA induction); assay type: in vivo, mice; details: single oral administration
Protocol: Compound 40 Dose Dependent Pharmacokinetics and Pharmacodynamic (PK/PD) Changes in the KEAP1 Mutant AKR1C3 Expressing Human Lung Cancer Xenograft NCI-H1944
The PK/PD relationship of Compound 40 was assessed in nude mice with established subcutaneous NCI-H1944 (KEAP1 mutant, AKR1C3 expressing) cell line derived lung cancer xenografts (FIG. 2). After a single oral administration of Compound 40, blood and tumor were collected to explore the PK profile of Compound 40 levels in blood and tumor. Compound 152, the active metabolite of the prodrug Compound 40 that inhibits KARS was also measured in tumor and blood. The PK data were compared to the tumor PD marker readouts of DDIT3 and EGR1 mRNA induction, downstream transcriptional readouts of KARS inhibition.

Compound	AC50 [1]	AC50 [2]	AC50 [3]	AC50 [4]	AC50 [5]	AC50 [6]	AC50 [7]	AC50 [8]	AC50 [9]	duration of the induction of DDIT3 and EGR1 mRNA levels ([10]; dose escalation, NCI-H1944 xenografts)	tumor PD markers (DDIT3 and EGR1 mRNA induction) after dosing ([10]; nude mice with NCI-H1944 xenografts)
CN1c2ccc(F)cc2C(=O)CC12CCN(C(=O)NCc1ccc(F)c(NCCO)c1)CC2 [Example 36, 6′-fluoro-N-(4-fluoro-3-((2-hydroxyethyl)amino)benzyl)-1′-methyl-4′-oxo-3′,4′-dihydro-1′H-spiro[piperidine-4,2′-quinoline]-1-carboxamide]	268 nM	> 1000 nM	781 nM	> 1000 nM	> 1000 nM	257 nM	> 1000 nM	478 nM	474 nM	–	–
O=C1CC2(CCN(C(=O)NCc3ccc(F)cc3)CC2)Nc2ccc(F)cc21 [Example 40]	50 nM	> 1000 nM	835 nM	> 1000 nM	> 1000 nM	68 nM	> 1000 nM	273 nM	330 nM	increased with dose escalation	remained elevated for 24 hours post-dose
